{"source": "patent US10357514B2", "about": "“Treatment of cancer using anti-CD19 Chimeric Antigen Receptor” (The Trustees of the University of Pennsylvania, priority 2014, dated 2019)", "molecules": {"B1": {"name": "IL-7: exogenous recombinant human IL-7 (protein, UniProt P13232 26-177, looked up)", "Interleukin-7": "DCDIEGKDGKQYESVLMVSIDQLLDSMKEIGSNCLNNEFNFFKRHICDANKEGMFLFRAARKLRQFLKMNSTGDFDLHLLKVSEGTTILLNCTGQVKGRKPAALGEAQPTKSLEENKSLKEQKKLNDLCFLKRLLQEIKTCWNKILMGTKEH"}}, "key": {"JEKO-1 cells": {"system": "JEKO-1 cells", "experiment": "Ibrutinib sensitivity by reduction of bioluminescence (BLI)", "format": "cell-based, human", "details": "0.1 nM to 10 μM"}, "PBMCs": {"system": "PBMCs", "experiment": "CAR19 lentiviral transduction of ibrutinib-treated normal donor PBMCs", "format": "cell-based, human", "details": "PBMCs incubated with 5 μM ibrutinib for 30 minutes", "procedure": "Normal donor PBMCs were obtained using apheresis as described herein, for example in Example 6. […] The cells were then transduced with lentiviral constructs containing CAR19 to generate CART19 T cells using the methods described herein, for example, in Example 4. The number of CART19 T cells generated from ibrutinib-treated PBMCs FACs analysis was performed to determine the number of CART19 T cells generated from ibrutinib-treated PBMCs compared to untreated PBMCs."}, "RL cells": {"system": "RL cells", "experiment": "Ibrutinib sensitivity by reduction of bioluminescence (BLI)", "format": "cell-based, human", "details": "0.1 nM to 10 μM"}, "Nalm/6 cells": {"system": "Nalm/6 cells", "experiment": "Nalm/6 tumor model in NSG mice", "format": "in vivo", "procedure": "CART19 function was assessed in an in vivo mouse model. Nalm/6 cells (human acute lymphoblastic leukemia cell line) were implanted into NSG mice, and the mice were monitored daily for at least 50 days. […] CART19 was administered on day 7 or day 9, or mice were left untreated (control). […] For example, the cells were stained with anti-human CD19 antibody to determine the percent of human CD19+(Nalm/6) cells in the blood of the tumor-bearing NSG mice."}, "MCL": {"system": "MCL", "details": "cited from earlier work"}, "CART19 T cells": {"system": "CART19 T cells", "details": "0.1, 0.5, 1 and 5 μM ibrutinib"}, "Mino": {"system": "Mino", "experiment": "MTT assay, ibrutinib inhibition of proliferation", "format": "cell-based", "details": "Homo sapiens"}, "MCL-RL cells": {"system": "MCL-RL cells", "experiment": "MCL-RL xenograft model in NSG mice", "format": "in vivo", "procedure": "NOD-SCID-γ chain−/− (NSG) mice originally obtained from Jackson Laboratories were purchased from the Stem Cell and Xenograft Core of the University of Pennsylvania. All experiments were performed on protocols approved by the Institutional Animal Care and Use Committee (IACUC). Schematics of the utilized xenograft models are discussed herein. Cells (MCL cell lines or T cells) were injected in 200 ul of PBS at the indicated concentration into the tail veins of mice. Bioluminescent imaging was performed using a Xenogen IVIS-200 Spectrum camera and analyzed with LivingImage software v. 4.3.1 (Caliper LifeSciencies). Animals were euthanized at the end of the experiment or when they met pre-specified endpoints according to the IACUC protocols.\nSchematics such as those shown in FIGS. 20, 55, and 5A were used in this example. […] 1×10^6 cells from RL (MCL-3), JEKO-1 (MCL-4), and NALM6 (MCL-5) cell lines are injected in NSG mice (20 mice for each experiment). […] At Day 7, Day 14, Day 21, and Day 28, the bioluminescence is imaged to monitor tumor size. […] Survival of the mice is also monitored. […] 2×10^6 MCL-RL cells are injected into NSG mice. […] At days 14, 21, 28, and 35 (after injection of MCL-RL cells), the bioluminescence is imaged to monitor tumor size.\nMean bioluminescence, representing tumor growth, was assessed at various timepoints."}, "Jeko-1": {"system": "Jeko-1", "experiment": "MTT assay, ibrutinib inhibition of proliferation", "format": "cell-based", "details": "Homo sapiens"}, "RL": {"system": "RL", "experiment": "MTT assay, ibrutinib inhibition of proliferation", "format": "cell-based", "details": "Homo sapiens"}, "[1]": {"details": "mice; cited from earlier work"}, "[2]": {"system": "luciferase-expressing mantle cell line (RL luc)", "experiment": "Lymphoma xenograft model, tumor burden by mean bioluminescence", "format": "in vivo, NSG mice", "details": "200 ng/mouse i.p. three times weekly from Day 85, mice with suboptimal response to CART19", "source_text": "Tumor size was monitored by measuring the mean bioluminescence of the engrafted tumors over more than 80 days. […] When comparing the tumor burden of mice that received IL-7 treatment to control, before and after IL-7 treatment, tumor reduction in tumor burden was only seen in the mice that had received IL-7 treatment (FIG. 49C)."}}, "data": [{"molecule": "C=CC(=O)N1CCC[C@@H](n2nc(-c3ccc(Oc4ccccc4)cc3)c3c(N)ncnc32)C1", "note": "[ibrutinib, 1-[(3R)-3-[4-Amino-3-(4-phenoxyphenyl)-1H-pyrazolo[3,4-d]pyrimidin-1-yl]piperidin-1-yl]prop-2-en-1-one]", "values": [{"measurement": "sensitivity to ibrutinib (reduction of bioluminescence)", "setting": "JEKO-1 cells", "result": "resistant"}, {"measurement": "transduced PBMCs expressing CAR19", "setting": "PBMCs", "result": 15, "unit": "%"}, {"measurement": "sensitivity to ibrutinib (reduction of bioluminescence)", "setting": "RL cells", "result": "sensitive"}, {"measurement": "Nalm/6 cells circulating in peripheral blood", "setting": "Nalm/6 cells; daily oral gavage from day 7, CART19 on day 7 or 9", "result": "does not impair CART19 function in clearing Nalm/6 cells"}, {"measurement": "survival after injection of Nalm/6 cells", "setting": "Nalm/6 cells; ibrutinib without CART19 T cells", "result": "≤ 30", "unit": "days"}, {"measurement": "patients who do not respond", "setting": "MCL", "result": "about 30%"}, {"measurement": "CD3/CD28-stimulated CART19 cell proliferation", "setting": "CART19 T cells", "result": "did not affect CART19 cell proliferation"}, {"measurement": "IC50", "setting": "Mino", "result": "≤ 10", "unit": "µM"}, {"measurement": "median overall survival", "setting": "MCL-RL cells; 25 mg/kg/day", "result": 81, "unit": "days"}, {"measurement": "median overall survival", "setting": "MCL-RL cells; 125 mg/kg/day", "result": 100, "unit": "days"}, {"measurement": "tumor growth (mean bioluminescence)", "setting": "MCL-RL cells; ibrutinib alone, 25 and 250 mg/kg/day", "result": "dose-related sensitivity"}, {"measurement": "circulating and nodal/organ MCL cells", "setting": "MCL-RL cells; one week after beginning ibrutinib alone", "result": "more circulating MCL cells and fewer nodal/organ MCL cells"}, {"measurement": "tumor burden (bioluminescence)", "setting": "MCL-RL cells; treatment from Day 7, CART19 2×10^6 cells, ibrutinib 125 mg/kg/day", "result": "modestly delayed tumor growth at early time points"}, {"measurement": "IC50", "setting": "Jeko-1", "result": "≤ 10", "unit": "µM"}, {"measurement": "IC50", "setting": "RL", "result": 0.01, "unit": "µM"}]}, {"molecule": "CO[C@H]1C[C@@H]2CC[C@@H](C)[C@@](O)(O2)C(=O)C(=O)N2CCCC[C@H]2C(=O)O[C@H]([C@H](C)C[C@@H]2CC[C@@H](O)[C@H](OC)C2)CC(=O)[C@H](C)/C=C(\\C)[C@@H](O)[C@@H](OC)C(=O)[C@H](C)C[C@H](C)/C=C/C=C/C=C/1C", "note": "[rapamycin]", "values": [{"measurement": "lifespan", "setting": "[1]", "result": "extended lifespan"}]}, {"molecule": "B1", "values": [{"measurement": "reduction in tumor burden", "setting": "[2]", "result": "1-3 log"}]}]}
